{"source": "patent US10085950B2", "about": "“Pharmaceutical composition for cancer treatment containing gossypol and phenformin as active ingredients” (NATIONAL CANCER CENTER, priority 2014, dated 2018)", "format_in_all_cases": "cell-based", "key": {"[1]": {"tested_on": "cancer cell lines A549/ATCC and NCI-H460", "experiment": "SRB analysis of single and combination treatment", "conditions": "0.1-50 μM gossypol alone; FIGS. 5 and 6", "experimental": "An SRB analysis was performed to examine the effect of gossypol on inhibiting the growth of cancer cell lines. Specifically, according to the doubling time of lung cancer cell lines, for example, A549/ATCC, HOP-62, HOP-92, NCI-H23, NCI-H460 or NCI-H522 cell lines, 5000 to 40000 cells were seeded per well and grown in a 96-well microtiter plate. After 24 hours, the cells were treated with […] of 0, 0.1, 1, 10 or 100 μM gossypol per well, and incubated at 37° C. for 48 hours. Subsequently, […] of 50% cold (4° C.) trichloroacetic acid (TCA) was added to each of the attached cell lines, and […] of 80% TCA was added to each of the suspended cell lines to fix the cells. Following the incubation of the plate at 4° C. for 1 to 3 hours, the TCA solution in the plate was discarded, and then the plate was rinsed with distilled water five times. The plate was dried at room temperature for approximately 12 to 24 hours, and then fixed cells were stained with […] of sulforhodamine B (SRB) at room temperature for 5 minutes. After staining, the plate was washed with 1% glacial acetic acid three times, and dried at room temperature for approximately 12 to 24 hours. The SRB dye was dissolved with 10 mM Trizma base, and an optical density was measured at 515 nm. The effect of gossypol on inhibiting cancer cells was represented as 50% growth inhibition (GI50). […]"}, "[2]": {"tested_on": "AMP-activated protein kinase (AMPK) phosphorylation in A549 lung cancer cell lines", "experiment": "AMPK phosphorylation by western blotting", "conditions": "1 μM for 0, 8, 16 or 24 hours; 0, 0.1, 0.5 or 1 μM for 24 hours; FIG. 4", "experimental": "To examine the anticancer effect according to the treatment time or concentration of gossypol, A549 lung cancer cell lines were treated with 1 μM gossypol for 0, 8, 16 or 24 hours, and then the phosphorylation of an AMP-activated protein kinase (AMPK), which is a critical protein for cancer cell division, was analyzed by western blotting.\nAlso, after the individual treatment of 0, 0.1, 0.5 or 1 μM gossypol for 24 hours, AMPK phosphorylation was also analyzed by western blotting."}, "[3]": {"tested_on": "lung cancer cell lines (A549/ATCC, HOP-62, HOP-92, NCI-H23, NCI-H460, NCI-H522)", "experiment": "SRB analysis of growth inhibition of lung cancer cell lines", "conditions": "48 hours incubation, single treatment, FIG. 3, read-out: GI50 concentration (50% growth inhibition)", "experimental": "An SRB analysis was performed to examine the effect of gossypol on inhibiting the growth of cancer cell lines. Specifically, according to the doubling time of lung cancer cell lines, for example, A549/ATCC, HOP-62, HOP-92, NCI-H23, NCI-H460 or NCI-H522 cell lines, 5000 to 40000 cells were seeded per well and grown in a 96-well microtiter plate. After 24 hours, the cells were treated with […] of 0, 0.1, 1, 10 or 100 μM gossypol per well, and incubated at 37° C. for 48 hours. Subsequently, […] of 50% cold (4° C.) trichloroacetic acid (TCA) was added to each of the attached cell lines, and […] of 80% TCA was added to each of the suspended cell lines to fix the cells. Following the incubation of the plate at 4° C. for 1 to 3 hours, the TCA solution in the plate was discarded, and then the plate was rinsed with distilled water five times. The plate was dried at room temperature for approximately 12 to 24 hours, and then fixed cells were stained with […] of sulforhodamine B (SRB) at room temperature for 5 minutes. After staining, the plate was washed with 1% glacial acetic acid three times, and dried at room temperature for approximately 12 to 24 hours. The SRB dye was dissolved with 10 mM Trizma base, and an optical density was measured at 515 nm. The effect of gossypol on inhibiting cancer cells was represented as 50% growth inhibition (GI50)."}, "[4]": {"tested_on": "A549 cell line", "experiment": "ATP level measurement according to gossypol concentration", "conditions": "0, 0.1 or 1 μM gossypol for 1 hour; FIG. 2", "experimental": "Also, to investigate a change of ATP levels according to the concentration of gossypol, an A549 cell line was treated with 0, 0.1 or 1 μM gossypol for 1 hour, followed by measuring ATP levels."}, "[5]": {"tested_on": "non-small cell lung cancer (NSCLC) cell lines (A549, H460, Hop-92, H23)", "experiment": "ATP level measurement with ATP assay kit after gossypol treatment", "conditions": "1 μM gossypol for 1 hour; FIG. 1", "experimental": "To examine whether energy generation in cancer cells was inhibited by gossypol, which is […], non-small cell lung cancer (NSCLC) cell lines, for example, an A549 cell line, an H460 cell line, an Hop-92 cell line and an H23 cell line, were treated with 1 μM gossypol for 1 hour, followed by measuring ATP levels using an ATP assay kit (Biovision; #K354-100). As a control, normal lung epithelial cells were used."}}}
{"compound": "Cc1cc2c(C(C)C)c(O)c(O)c(C=O)c2c(O)c1-c1c(C)cc2c(C(C)C)c(O)c(O)c(C=O)c2c1O", "note": "[gossypol]", "values": [{"measurement": "growth of the cancer cells, single treatment", "setting": "[1]", "value": "hardly inhibited"}, {"measurement": "AMPK phosphorylation", "setting": "[2]", "value": "increased depending on the treatment time and concentration"}, {"measurement": "GI50", "setting": "[3]", "value": 5, "unit": "µM"}, {"measurement": "inhibition of the ATP production, concentration dependence", "setting": "[4]", "value": "dependent on the concentration of gossypol"}, {"measurement": "levels of ATP production", "setting": "[5]", "value": "inhibited"}]}
